Measurements: patent publication US20190274981A1, “OLEANOLIC ACID ENHANCES MESENCHYMAL STROMAL CELL OSTEOGENIC POTENTIAL BY INHIBITION OF NOTCH SIGNALING” (Board of Supervisors of Louisiana State University and …, priority 2018, published 2019)
Entries after “also recorded” stand apart in the source; their conditions may differ.

Legend:
Notch signaling = experiment: Notch responsive RBPJ-Luc luciferase assay; type: cell-based, human; conditions: MSCs, 0, 10 μM and 20 μM OA, 48 hours
Procedure: Luciferase assay: 80% confluence MSCs were transfected with Notch responsive RBPJ-Luc and SV40-Renilla-Luc (Promega) in the presence of Lipofectamine 2000 (Invitrogen) followed by OA treatment. At 24 hours after transfection and treatment, lysates were analyzed with a Dual Luciferase Assay Kit (Promega).
The inventor has identified the RBPjk-dependent Notch pathway as an important inducer of MSC proliferation, and an inhibitor of MSC differentiation during mouse limb-bud and postnatal bone development. In this study, the inventor further tested whether Notch signaling is also involved in OA-mediated osteogenesis. To do so, MSCs were first transfected with the RBPjk-dependent NOTCH-responsive luciferase reporter, and then cultured in medium containing 0, 10 μM and 20 μM OA for 48 hours. […] Moreover, down-regulation of Notch target gene Hes1 expression was also observed in OA treated MSCs (FIG. 1E), which further confirmed the inhibitory effect of OA on Notch signaling.

MSC/HA pellet = experiment: In vivo ectopic bone-formation assay; conditions: MSCs with 20 μM OA, subcutaneous in nude mice, six weeks
Procedure: In vivo ectopic bone-formation assay: All animal studies were reviewed and approved by the Animal Ethics Committee of Louisiana State University Health Sciences Center. 1.0×10^6 total MSCs were re-suspended in 80 μl of MSC growth media containing 20 μM OA and gently mixed with 50 mg of hydroxyapatite (HA) powder (Himed). The composites were then centrifuged for two minutes at 200 rpm to form a MSC/HA pellet. For ectopic bone formation surgery, ten 8-week-old NOD.CB17^−Prkdescid/J mice (Charles River) (up to 2 implants for each animal) were anesthetized and the dorsal skin was cleaned with 70% ethanol. Two incisions of ˜1 cm in length were performed on the opposite flanks of the back, and then a pocket was formed by blunt dissection. Finally the MSC/HA pellets were implanted. Six weeks post-surgery, transplanted BMSC/HA pellets were harvested for gross observation and Masson's trichrome staining. […] All animal work was performed in accordance with institution approved guidelines.
MSCs were first dissolved in PBS containing 20 μM OA, then mixed with HA ceramic powder, and centrifuged into MSC/HA pellets prior to subcutaneous transplantation into nude mice. After six weeks of growth and differentiation, the pellets were harvested for gross observation, Masson's trichrome and immunohistochemistry staining (FIG. 4A).

MSCs [1] = experiment: Lentivirus-mediated Notch activation (NICD1 overexpression) in OA treated MSCs; type: cell-based, human
MSCs [2] = experiment: MSC osteogenic differentiation assay, real time RT-PCR of osteogenic markers; type: cell-based, human; conditions: OA 10 and 20 μM, seven days, vs DMSO treated control MSCs
Procedure: (§1) Cell culture and treatment: The human MSCs were purchased from Lonza. Oleanolic acid was obtained from Sigma-Aldrich (Aldrich-5504). A 100 mM solution of OA was prepared in dimethyl sulfoxide (DMSO), and all test concentrations were prepared by diluting the stock solution in cell culture medium. […] After expansion, cells were exposed to media containing OA and/or BMP2 for certain days. […] At the end, cells were harvested at different time points for analyses as described below.
MSC osteogenic differentiation assay: Osteogenic differentiation assays of MSCs were performed using the Osteogenic differentiation bulletKit® (Lonza). MSCs were cultured at 200,000 cells/well in 6-well plates to confluence. Stem cell growth media was then replaced with osteogenic media supplied with or without OA and BMP2. After seven days of culture, alkaline phosphatase (ALP) staining, RNA, and protein isolation were performed as described in our published protocols.
(§2) Real time RT-PCR: cDNA was synthesized from 1 μg total RNA using the SuperScript III reverse transcriptase kit (Invitrogen) in a final volume of 20 μl. Primers were designed with the IDT SCI primer design tool (Integrated DNA Technologies, San Diego, Calif.). RT-PCR experiments were performed with a Bio-Rad C1000 thermal cycler (Bio-Rad, Hercules, Calif.), and real-time PCR experiments were performed with an ABI prism 7500 (Applied Biosystems, Grand Island, N.Y.) in triplicate. Sequence for each primer pair were: Hes1, forward primer 5′-[…]-3′, reverse primer 5′-[…]-3′; ALP, forward primer 5′-[…]-3′, reverse primer 5′-[…] […]-3′; Runx2, forward primer 5′-[…]-3′, reverse primer 5′-[…]-3′; Osteocalcin (OC), forward primer 5′-[…]-3′, reverse primer 5′-[…]-3′; Osteopontin (OPN), forward primer 5′-[…]-3′, reverse primer 5′-[…]-3′; Type I collagen (Col1a1), forward primer 5′-[…]-3′, reverse primer 5′-[…]-3′; β-actin, forward primer 5′-[…]-3′; reverse primer 5′-[…] […]-3′. Samples were analyzed in triplicate, and the raw data consisted of PCR cycle numbers required to reach a fluorescence threshold level. The relative expression level of target genes was normalized to (β-actin gene.

normal cells = conditions: cited from earlier work
phospho-smad1/5/8 = experiment: RT-PCR and western blot of phospho-smad1/5/8; type: cell-based, human; conditions: MSCs
Procedure: Real time RT-PCR: cDNA was synthesized from 1 μg total RNA using the SuperScript III reverse transcriptase kit (Invitrogen) in a final volume of 20 μl. Primers were designed with the IDT SCI primer design tool (Integrated DNA Technologies, San Diego, Calif.). RT-PCR experiments were performed with a Bio-Rad C1000 thermal cycler (Bio-Rad, Hercules, Calif.), and real-time PCR experiments were performed with an ABI prism 7500 (Applied Biosystems, Grand Island, N.Y.) in triplicate. […] Samples were analyzed in triplicate, and the raw data consisted of PCR cycle numbers required to reach a fluorescence threshold level. The relative expression level of target genes was normalized to (β-actin gene.
Western blot analysis: MSCs cultured with or without OA and BMP2 treatment were lysed in RIPA buffer (10 mM Tris-HCI, 1 mM EDTA, 1 sodium dodecyl sulfate [SDS], 1% NP-40, 1:100 proteinase inhibitor cocktail, 50 mM β-glycerophosphate, 50 mM sodium fluoride). The samples were separated on a 10% SDS polyacrylamide gel and transferred to polyvinylidene difluoride (PVDF) membranes with a semi-dry transfer apparatus (Bio-Rad). The membranes were blotted with 5% dehydrated milk for two hours, and then, incubated with primary antibodies overnight. […]

NICD = experiment: Western blot of NICD; type: cell-based, human; conditions: OA treated MSCs, day 3
Notch target gene Hes1 = experiment: Real time PCR of Notch target gene Hes1; type: cell-based, human; conditions: OA treated MSCs, day 7, vs DMSO treated control
Procedure: as §2

MSCs [3] = experiment: Cell viability assay (MTT); type: cell-based, human; conditions: 12 hours
Procedure: as §1
Cell viability assay: MSC viability was measured using MTT (3-(4, 5-dimethylthiazole-2-yl)-2, 5-diphenyl tetrazolium bromide) based in vitro toxicology assay kit (Sigma, St. Louis, Mo., USA). Briefly, cells were seeded in 96-well plates. After growing into 50-60% confluence, cells were exposed to various concentrations of OA for 12 hours, then the supernatant was discarded, and cells were treated with 0.5 mg/ml MTT staining solution for another four hours. After incubation, the supernatant was removed and 50 μl of solubilization buffer provided by the Sigma kit with 0.5% DMSO was added. DMSO was added to ensure total solubility of the formazan crystals. Plates were shaken for two minutes, and the absorbance recorded at 590 nm on an automated microtiter plate reader. The percent viability was expressed as a percentage of that in the vehicle control (with subtraction of background absorbance).

MSCs [4] = experiment: MSC osteogenic differentiation assay, ALP staining; type: cell-based, human
Procedure: Cell culture and treatment: The human MSCs were purchased from Lonza. Oleanolic acid was obtained from Sigma-Aldrich (Aldrich-5504). A 100 mM solution of OA was prepared in dimethyl sulfoxide (DMSO), and all test concentrations were prepared by diluting the stock solution in cell culture medium. […] At the end, cells were harvested at different time points for analyses as described below.
MSC osteogenic differentiation assay: Osteogenic differentiation assays of MSCs were performed using the Osteogenic differentiation bulletKit® (Lonza). MSCs were cultured at 200,000 cells/well in 6-well plates to confluence. […] After seven days of culture, alkaline phosphatase (ALP) staining, RNA, and protein isolation were performed as described in our published protocols.

Structure (SMILES): CC1(C)CC[C@]2(C(=O)O)CC[C@]3(C)C(=CC[C@@H]4[C@@]5(C)CC[C@H](O)C(C)(C)[C@@H]5CC[C@]43C)[C@@H]2C1 [OA, (3β)-3-hydroxyolean-12-en-28-oic acid]
- Notch-responsive luciferase activity (Notch signaling): inhibited Notch-responsive luciferase activity dose dependently
- increase of type I collagen bone matrix (blue) in the pellet area vs untreated MSCs (MSC/HA pellet): approximately 4 fold
- pellet area stained blue (type I collagen bone matrix, Masson's trichrome) (MSC/HA pellet): 30%
- OA-induced ALP staining under overexpression of NICD1 (MSCs [1]; NICD1 lentivirus infected MSCs, OA, day 7): totally blocked
- expression of ALP, Runx2 and Col1a1 in Notch activated MSCs with OA (MSCs [1]; NICD1 lentivirus, RT-PCR, day 7, vs control or OA treated MSCs): significantly reduced
- ALP expression (early osteogenic marker) (MSCs [2]): enhanced expression
- Col1a1 expression (early osteogenic marker) (MSCs [2]): enhanced expression
- OC expression (later osteogenic marker) (MSCs [2]): remained unchanged
- OPN expression (later osteogenic marker) (MSCs [2]): remained unchanged
- Runx2 expression (early osteogenic marker) (MSCs [2]): enhanced expression
- cytotoxicity to normal cells (normal cells): no significant cytotoxicity
- gene expression of p-smad1/5/8 (RT-PCR) (phospho-smad1/5/8; day 7, OA 20 μM, BMP2 200 ng/ml): did not show any effects
- p-smad1/5/8 expression (western blot) (phospho-smad1/5/8; day 7, control vs OA treated): no significant difference
- expression of NICD (western blot) (NICD): significantly reduced
- Notch target gene Hes1 expression (Notch target gene Hes1): down-regulation
- cell death in cell viability assay (MSCs [3]; OA 10 μM): no cell death
- cell death in cell viability assay (MSCs [3]; OA 20 μM): no cell death
- cell death in cell viability assay (MSCs [3]; OA 30 μM): significant cell death
- ALP activity (ALP staining) (MSCs [4]; OA 20 μM and/or BMP2 200 ng/ml, seven days, osteogenic medium): significant increase; also recorded: relative weak ALP staining
- ALP staining (MSC osteogenic differentiation) (MSCs [4]; OA 10 and 20 μM, seven days): dose dependent increase
- osteogenic nodule formation (MSCs [4]; OA treated MSCs at day 7, maximal staining at 20 μM): increase in osteogenic nodule formation
